Experimental data published in the kinase profiling compilation of Christmann-Franck et al. (2016).

What was measured:
Assay in all cases: radiometric filter-binding kinase assay, Kinase HotSpot
Settings in all cases: compound 0.5 µM; ATP 10 µM
MAPK14 (human) = MAPK14 (human) (UniProt Q16539)
PRKCB2 (human) = PRKCB2 (human) (UniProt P05771)
ADRBK2 (human) = ADRBK2 (human) (UniProt P35626)
CDK1 CCNA2 (human) = CDK1 CCNA2 (human) (UniProt P06493+P20248)
NTRK3 (human) = NTRK3 (human) (UniProt Q16288)
TYRO3 (human) = TYRO3 (human) (UniProt Q06418)
EPHA2 (human) = EPHA2 (human) (UniProt P29317)
WNK2 (human) = WNK2 (human) (UniProt Q9Y3S1)
PTK2B (human) = PTK2B (human) (UniProt Q14289)
PAK6 (human) = PAK6 (human) (UniProt Q9NQU5)
CAMK1D (human) = CAMK1D (human) (UniProt Q8IU85)
MAPK10 (human) = MAPK10 (human) (UniProt P53779)
ALK (human) = ALK (human) (UniProt Q9UM73)
EPHA5 (human) = EPHA5 (human) (UniProt P54756)
CDK1 CCNB1 (human) = CDK1 CCNB1 (human) (UniProt P06493+P14635)
CSF1R (human) = CSF1R (human) (UniProt P07333)
MAPK13 (human) = MAPK13 (human) (UniProt O15264)
TTK (human) = TTK (human) (UniProt P33981)
NUAK1 (human) = NUAK1 (human) (UniProt O60285)
MATK (human) = MATK (human) (UniProt P42679)
HIPK4 (human) = HIPK4 (human) (UniProt Q8NE63)
PLK2 (human) = PLK2 (human) (UniProt Q9NYY3)
NUAK2 (human) = NUAK2 (human) (UniProt Q9H093)
NTRK2 (human) = NTRK2 (human) (UniProt Q16620)
PRKCB1 (human) = PRKCB1 (human) (UniProt P05771)
IKBKE (human) = IKBKE (human) (UniProt Q14164)
CSNK1G2 (human) = CSNK1G2 (human) (UniProt P78368)
AKT3 (human) = AKT3 (human) (UniProt Q9Y243)
PTK6 (human) = PTK6 (human) (UniProt Q13882)
FER (human) = FER (human) (UniProt P16591)
MAP3K14 (human) = MAP3K14 (human) (UniProt Q99558)
FGR (human) = FGR (human) (UniProt P09769)
GRK5 (human) = GRK5 (human) (UniProt P34947)
ROCK2 (human) = ROCK2 (human) (UniProt O75116)
RPS6KA3 KD1 KD2 (human) = RPS6KA3 KD1 KD2 (human) (UniProt P51812)
CLK2 (human) = CLK2 (human) (UniProt P49760)
STK25 (human) = STK25 (human) (UniProt O00506)
MAPK8 (human) = MAPK8 (human) (UniProt P45983)
PRKCZ (human) = PRKCZ (human) (UniProt Q05513)
PRKD1 (human) = PRKD1 (human) (UniProt Q15139)
CDK6 CCND3 (human) = CDK6 CCND3 (human) (UniProt P30281+Q00534)
CHEK2 (human) = CHEK2 (human) (UniProt O96017)

MAP3K14 (human), sequence (Q99558 whole entry, looked up): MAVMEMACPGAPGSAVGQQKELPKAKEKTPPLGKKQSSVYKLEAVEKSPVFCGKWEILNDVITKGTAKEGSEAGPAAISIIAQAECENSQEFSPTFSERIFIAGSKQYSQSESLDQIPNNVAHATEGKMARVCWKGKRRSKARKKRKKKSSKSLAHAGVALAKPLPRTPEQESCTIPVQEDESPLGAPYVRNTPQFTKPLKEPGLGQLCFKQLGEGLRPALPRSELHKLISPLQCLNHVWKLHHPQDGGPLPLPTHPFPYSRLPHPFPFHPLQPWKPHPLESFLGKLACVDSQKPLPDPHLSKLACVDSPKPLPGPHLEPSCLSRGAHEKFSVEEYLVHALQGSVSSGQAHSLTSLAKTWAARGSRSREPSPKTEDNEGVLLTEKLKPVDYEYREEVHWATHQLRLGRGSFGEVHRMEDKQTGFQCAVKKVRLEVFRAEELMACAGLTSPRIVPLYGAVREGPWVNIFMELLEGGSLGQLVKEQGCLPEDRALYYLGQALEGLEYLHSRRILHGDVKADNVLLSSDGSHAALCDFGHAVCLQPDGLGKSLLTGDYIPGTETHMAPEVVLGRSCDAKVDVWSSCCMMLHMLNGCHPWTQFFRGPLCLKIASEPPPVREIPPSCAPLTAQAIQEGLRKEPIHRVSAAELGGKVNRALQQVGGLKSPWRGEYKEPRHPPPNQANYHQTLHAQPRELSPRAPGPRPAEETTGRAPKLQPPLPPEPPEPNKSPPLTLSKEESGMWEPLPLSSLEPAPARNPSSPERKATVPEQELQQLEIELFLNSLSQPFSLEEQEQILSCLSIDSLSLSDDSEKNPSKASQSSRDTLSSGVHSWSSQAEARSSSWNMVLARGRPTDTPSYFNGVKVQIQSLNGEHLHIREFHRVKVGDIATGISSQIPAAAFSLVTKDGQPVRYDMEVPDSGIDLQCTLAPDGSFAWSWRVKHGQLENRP
STK25 (human), sequence (O00506 whole entry, looked up): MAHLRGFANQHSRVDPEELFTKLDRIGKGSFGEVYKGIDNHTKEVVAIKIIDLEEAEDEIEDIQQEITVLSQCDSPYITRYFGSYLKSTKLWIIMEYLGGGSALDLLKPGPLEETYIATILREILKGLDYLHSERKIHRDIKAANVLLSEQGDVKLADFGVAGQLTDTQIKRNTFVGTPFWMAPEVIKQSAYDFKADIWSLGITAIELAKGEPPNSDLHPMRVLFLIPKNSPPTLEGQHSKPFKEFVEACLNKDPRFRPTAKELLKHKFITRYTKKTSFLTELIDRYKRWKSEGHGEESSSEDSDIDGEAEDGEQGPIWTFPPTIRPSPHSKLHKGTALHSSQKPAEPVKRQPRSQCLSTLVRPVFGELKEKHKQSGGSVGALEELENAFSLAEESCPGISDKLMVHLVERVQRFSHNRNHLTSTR
CDK6 CCND3 (human), sequence (P30281 whole entry, looked up): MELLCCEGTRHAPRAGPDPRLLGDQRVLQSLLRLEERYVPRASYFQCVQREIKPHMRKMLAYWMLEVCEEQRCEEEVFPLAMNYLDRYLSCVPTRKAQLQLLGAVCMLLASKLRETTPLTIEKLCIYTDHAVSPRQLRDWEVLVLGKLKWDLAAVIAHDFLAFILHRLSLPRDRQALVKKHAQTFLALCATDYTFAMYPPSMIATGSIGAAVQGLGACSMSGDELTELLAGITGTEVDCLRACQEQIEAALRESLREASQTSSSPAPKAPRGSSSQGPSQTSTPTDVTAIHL
CDK6 CCND3 (human), sequence (Q00534 whole entry, looked up): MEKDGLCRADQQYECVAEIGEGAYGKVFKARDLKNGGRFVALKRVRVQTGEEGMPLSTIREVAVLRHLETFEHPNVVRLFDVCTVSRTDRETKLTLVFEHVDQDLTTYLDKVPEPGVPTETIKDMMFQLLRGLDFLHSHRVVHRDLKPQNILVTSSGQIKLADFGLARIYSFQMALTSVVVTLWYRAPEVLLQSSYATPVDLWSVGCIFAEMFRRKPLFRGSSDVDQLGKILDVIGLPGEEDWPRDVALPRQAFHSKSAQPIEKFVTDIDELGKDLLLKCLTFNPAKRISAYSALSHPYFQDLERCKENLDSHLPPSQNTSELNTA
FGR (human), sequence (P09769 whole entry, looked up): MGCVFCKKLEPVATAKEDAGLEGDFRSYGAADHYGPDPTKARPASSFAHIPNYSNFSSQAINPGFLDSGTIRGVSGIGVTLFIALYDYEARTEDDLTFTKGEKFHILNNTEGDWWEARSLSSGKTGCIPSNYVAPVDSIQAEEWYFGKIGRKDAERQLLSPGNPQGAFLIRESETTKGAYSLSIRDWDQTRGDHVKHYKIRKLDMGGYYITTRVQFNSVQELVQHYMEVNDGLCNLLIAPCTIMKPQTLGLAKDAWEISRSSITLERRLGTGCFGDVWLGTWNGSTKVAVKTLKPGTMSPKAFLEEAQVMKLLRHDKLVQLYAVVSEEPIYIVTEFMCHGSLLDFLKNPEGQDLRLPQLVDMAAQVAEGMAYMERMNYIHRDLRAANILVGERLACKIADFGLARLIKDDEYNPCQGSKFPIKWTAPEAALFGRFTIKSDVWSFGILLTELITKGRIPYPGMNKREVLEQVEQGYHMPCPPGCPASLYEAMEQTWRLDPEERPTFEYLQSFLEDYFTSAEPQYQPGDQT
TTK (human), sequence (P33981 whole entry, looked up): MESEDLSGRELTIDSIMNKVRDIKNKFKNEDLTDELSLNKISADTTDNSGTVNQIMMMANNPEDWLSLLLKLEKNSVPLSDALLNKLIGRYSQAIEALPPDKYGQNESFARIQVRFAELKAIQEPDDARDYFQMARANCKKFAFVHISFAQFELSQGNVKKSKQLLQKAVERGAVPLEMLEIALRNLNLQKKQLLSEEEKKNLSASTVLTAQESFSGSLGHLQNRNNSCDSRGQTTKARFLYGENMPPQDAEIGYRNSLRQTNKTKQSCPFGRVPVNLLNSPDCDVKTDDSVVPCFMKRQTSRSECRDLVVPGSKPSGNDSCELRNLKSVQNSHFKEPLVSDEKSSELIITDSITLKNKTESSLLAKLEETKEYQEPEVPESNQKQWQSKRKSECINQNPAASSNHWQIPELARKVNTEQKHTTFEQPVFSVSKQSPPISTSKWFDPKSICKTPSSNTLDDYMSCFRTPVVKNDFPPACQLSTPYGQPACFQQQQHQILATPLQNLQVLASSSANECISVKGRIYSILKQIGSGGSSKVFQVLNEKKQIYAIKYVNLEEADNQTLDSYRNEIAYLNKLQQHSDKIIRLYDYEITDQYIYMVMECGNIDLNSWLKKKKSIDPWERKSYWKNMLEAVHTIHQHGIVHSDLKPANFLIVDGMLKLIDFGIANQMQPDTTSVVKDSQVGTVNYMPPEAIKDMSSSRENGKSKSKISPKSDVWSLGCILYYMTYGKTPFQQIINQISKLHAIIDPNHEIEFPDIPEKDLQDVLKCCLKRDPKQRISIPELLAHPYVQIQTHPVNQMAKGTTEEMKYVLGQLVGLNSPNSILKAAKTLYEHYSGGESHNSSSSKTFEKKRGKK
MATK (human), sequence (P42679 whole entry, looked up): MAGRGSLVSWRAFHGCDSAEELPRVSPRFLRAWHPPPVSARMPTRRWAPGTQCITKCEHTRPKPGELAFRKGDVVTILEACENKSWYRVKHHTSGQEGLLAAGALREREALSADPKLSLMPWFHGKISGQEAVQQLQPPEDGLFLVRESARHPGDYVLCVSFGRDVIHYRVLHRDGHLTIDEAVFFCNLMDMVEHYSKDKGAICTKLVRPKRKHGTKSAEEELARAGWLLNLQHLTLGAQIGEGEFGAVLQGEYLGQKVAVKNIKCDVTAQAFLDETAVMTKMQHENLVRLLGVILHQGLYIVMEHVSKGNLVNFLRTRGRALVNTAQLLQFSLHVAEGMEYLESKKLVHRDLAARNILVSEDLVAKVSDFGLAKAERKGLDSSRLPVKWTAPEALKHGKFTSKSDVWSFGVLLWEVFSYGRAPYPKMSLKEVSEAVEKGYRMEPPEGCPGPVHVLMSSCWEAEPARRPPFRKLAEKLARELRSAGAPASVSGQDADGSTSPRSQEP
TYRO3 (human), sequence (Q06418 whole entry, looked up): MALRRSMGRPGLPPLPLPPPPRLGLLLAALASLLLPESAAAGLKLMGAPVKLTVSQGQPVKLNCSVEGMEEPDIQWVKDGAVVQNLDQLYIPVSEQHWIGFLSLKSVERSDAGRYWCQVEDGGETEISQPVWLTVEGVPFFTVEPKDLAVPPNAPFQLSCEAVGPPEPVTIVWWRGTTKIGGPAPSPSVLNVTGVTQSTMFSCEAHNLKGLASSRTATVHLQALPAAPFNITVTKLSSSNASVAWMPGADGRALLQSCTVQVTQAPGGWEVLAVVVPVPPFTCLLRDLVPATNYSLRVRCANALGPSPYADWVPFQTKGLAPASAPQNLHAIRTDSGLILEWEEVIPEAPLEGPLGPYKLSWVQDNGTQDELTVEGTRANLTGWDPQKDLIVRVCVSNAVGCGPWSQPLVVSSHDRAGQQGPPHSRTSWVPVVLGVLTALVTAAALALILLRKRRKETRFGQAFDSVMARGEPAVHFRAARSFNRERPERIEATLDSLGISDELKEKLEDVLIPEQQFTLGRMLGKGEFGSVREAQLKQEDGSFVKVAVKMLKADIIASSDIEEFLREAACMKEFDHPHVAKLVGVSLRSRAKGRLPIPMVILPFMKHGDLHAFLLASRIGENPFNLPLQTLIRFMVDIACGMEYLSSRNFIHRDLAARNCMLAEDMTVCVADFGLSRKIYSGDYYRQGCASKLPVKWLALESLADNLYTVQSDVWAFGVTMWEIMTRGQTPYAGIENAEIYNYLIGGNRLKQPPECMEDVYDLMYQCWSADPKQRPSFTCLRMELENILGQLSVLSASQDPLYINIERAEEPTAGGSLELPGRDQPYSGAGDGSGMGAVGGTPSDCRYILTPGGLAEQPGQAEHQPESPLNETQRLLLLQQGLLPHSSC

## CCn1cnc2c(Nc3cccc(Cl)c3)nc(N[C@@H]3CCCC[C@@H]3N)nc21
MAPK14 (human)
  residual activity: 100%
PRKCB2 (human)
  residual activity: 79.4%
ADRBK2 (human)
  residual activity: 89.2%
CDK1 CCNA2 (human)
  residual activity: 60.7%
NTRK3 (human)
  residual activity: 23.4%
TYRO3 (human)
  residual activity: 98.3%
EPHA2 (human)
  residual activity: 86.7%
WNK2 (human)
  residual activity: 94.1%
PTK2B (human)
  residual activity: 85.7%
PAK6 (human)
  residual activity: 96.7%
CAMK1D (human)
  residual activity: 96.7%
MAPK10 (human)
  residual activity: 98.8%
ALK (human)
  residual activity: 92.3%
EPHA5 (human)
  residual activity: 73.9%
CDK1 CCNB1 (human)
  residual activity: 16.4%
CSF1R (human)
  residual activity: 94.2%
MAPK13 (human)
  residual activity: 102%
TTK (human)
  residual activity: 99.7%
NUAK1 (human)
  residual activity: 52.4%
MATK (human)
  residual activity: 88.3%
HIPK4 (human)
  residual activity: 88.4%
PLK2 (human)
  residual activity: 95.8%
NUAK2 (human)
  residual activity: 93.7%
NTRK2 (human)
  residual activity: 55.3%
PRKCB1 (human)
  residual activity: 106%
IKBKE (human)
  residual activity: 99.5%
CSNK1G2 (human)
  residual activity: 69.5%
AKT3 (human)
  residual activity: 95.8%
PTK6 (human)
  residual activity: 82.1%
FER (human)
  residual activity: 86.8%
MAP3K14 (human)
  residual activity: 85.1%
FGR (human)
  residual activity: 45.8%
GRK5 (human)
  residual activity: 106%
ROCK2 (human)
  residual activity: 90.6%
RPS6KA3 KD1 KD2 (human)
  residual activity: 64.1%
CLK2 (human)
  residual activity: 26.6%
STK25 (human)
  residual activity: 101%
MAPK8 (human)
  residual activity: 97.6%
PRKCZ (human)
  residual activity: 106%
PRKD1 (human)
  residual activity: 90.8%
CDK6 CCND3 (human)
  residual activity: 76.9%
CHEK2 (human)
  residual activity: 79.9%

## O=C(O)/C=C/c1cc(Br)c(Br)c(Br)c1Br
MAPK14 (human)
  residual activity: 99.5%
PRKCB2 (human)
  residual activity: 84.7%
ADRBK2 (human)
  residual activity: 94.3%
CDK1 CCNA2 (human)
  residual activity: 88.6%
NTRK3 (human)
  residual activity: 90.6%
TYRO3 (human)
  residual activity: 93.3%
EPHA2 (human)
  residual activity: 97.9%
WNK2 (human)
  residual activity: 93%
PTK2B (human)
  residual activity: 93.3%
PAK6 (human)
  residual activity: 110%
CAMK1D (human)
  residual activity: 98.1%
MAPK10 (human)
  residual activity: 96.3%
ALK (human)
  residual activity: 98.6%
EPHA5 (human)
  residual activity: 88.7%
CDK1 CCNB1 (human)
  residual activity: 62.7%
CSF1R (human)
  residual activity: 99%
MAPK13 (human)
  residual activity: 98.5%
TTK (human)
  residual activity: 98.1%
NUAK1 (human)
  residual activity: 87.6%
MATK (human)
  residual activity: 87.2%
HIPK4 (human)
  residual activity: 102%
PLK2 (human)
  residual activity: 51.5%
NUAK2 (human)
  residual activity: 98.9%
NTRK2 (human)
  residual activity: 98.2%
PRKCB1 (human)
  residual activity: 95.5%
IKBKE (human)
  residual activity: 96.8%
CSNK1G2 (human)
  residual activity: 90.1%
AKT3 (human)
  residual activity: 92.7%
PTK6 (human)
  residual activity: 95%
FER (human)
  residual activity: 96.6%
MAP3K14 (human)
  residual activity: 100%
FGR (human)
  residual activity: 98.4%
GRK5 (human)
  residual activity: 104%
ROCK2 (human)
  residual activity: 94.2%
RPS6KA3 KD1 KD2 (human)
  residual activity: 41.2%
CLK2 (human)
  residual activity: 85%
STK25 (human)
  residual activity: 87.2%
MAPK8 (human)
  residual activity: 86.8%
PRKCZ (human)
  residual activity: 89.2%
PRKD1 (human)
  residual activity: 88.9%
CDK6 CCND3 (human)
  residual activity: 102%
CHEK2 (human)
  residual activity: 77.5%

## Oc1ccc(Nc2nc(-c3ccc(Cl)cc3)cs2)cc1
MAPK14 (human)
  residual activity: 98.6%
PRKCB2 (human)
  residual activity: 94.7%
ADRBK2 (human)
  residual activity: 97.6%
CDK1 CCNA2 (human)
  residual activity: 91.2%
NTRK3 (human)
  residual activity: 102%
TYRO3 (human)
  residual activity: 102%
EPHA2 (human)
  residual activity: 105%
WNK2 (human)
  residual activity: 101%
PTK2B (human)
  residual activity: 100%
PAK6 (human)
  residual activity: 100%
CAMK1D (human)
  residual activity: 103%
MAPK10 (human)
  residual activity: 101%
ALK (human)
  residual activity: 111%
EPHA5 (human)
  residual activity: 92.6%
CDK1 CCNB1 (human)
  residual activity: 109%
CSF1R (human)
  residual activity: 104%
MAPK13 (human)
  residual activity: 107%
TTK (human)
  residual activity: 87.6%
NUAK1 (human)
  residual activity: 90.7%
MATK (human)
  residual activity: 95.6%
HIPK4 (human)
  residual activity: 101%
PLK2 (human)
  residual activity: 105%
NUAK2 (human)
  residual activity: 137%
NTRK2 (human)
  residual activity: 107%
PRKCB1 (human)
  residual activity: 101%
IKBKE (human)
  residual activity: 95.9%
CSNK1G2 (human)
  residual activity: 91.8%
AKT3 (human)
  residual activity: 105%
PTK6 (human)
  residual activity: 87.4%
FER (human)
  residual activity: 90.3%
MAP3K14 (human)
  residual activity: 102%
FGR (human)
  residual activity: 96.4%
GRK5 (human)
  residual activity: 92%
ROCK2 (human)
  residual activity: 99.4%
RPS6KA3 KD1 KD2 (human)
  residual activity: 107%
CLK2 (human)
  residual activity: 102%
STK25 (human)
  residual activity: 113%
MAPK8 (human)
  residual activity: 100%
PRKCZ (human)
  residual activity: 105%
PRKD1 (human)
  residual activity: 96.8%
CDK6 CCND3 (human)
  residual activity: 109%
CHEK2 (human)
  residual activity: 97.9%

## O=C1NC(=O)C(c2c[nH]c3ccccc23)=C1c1c[nH]c2ccccc12
MAPK14 (human)
  residual activity: 109%
PRKCB2 (human)
  residual activity: 42.9%
ADRBK2 (human)
  residual activity: 87%
CDK1 CCNA2 (human)
  residual activity: 96.3%
NTRK3 (human)
  residual activity: 72.5%
TYRO3 (human)
  residual activity: 101%
EPHA2 (human)
  residual activity: 91.6%
WNK2 (human)
  residual activity: 92.7%
PTK2B (human)
  residual activity: 95.6%
PAK6 (human)
  residual activity: 92.4%
CAMK1D (human)
  residual activity: 106%
MAPK10 (human)
  residual activity: 110%
ALK (human)
  residual activity: 95.7%
EPHA5 (human)
  residual activity: 95.3%
CDK1 CCNB1 (human)
  residual activity: 96.5%
CSF1R (human)
  residual activity: 93.7%
MAPK13 (human)
  residual activity: 104%
TTK (human)
  residual activity: 106%
NUAK1 (human)
  residual activity: 78.5%
MATK (human)
  residual activity: 91.1%
HIPK4 (human)
  residual activity: 109%
PLK2 (human)
  residual activity: 97.7%
NUAK2 (human)
  residual activity: 86%
NTRK2 (human)
  residual activity: 90.7%
PRKCB1 (human)
  residual activity: 26.1%
IKBKE (human)
  residual activity: 103%
CSNK1G2 (human)
  residual activity: 92%
AKT3 (human)
  residual activity: 90%
PTK6 (human)
  residual activity: 84.6%
FER (human)
  residual activity: 83.5%
MAP3K14 (human)
  residual activity: 91%
FGR (human)
  residual activity: 88.5%
GRK5 (human)
  residual activity: 98.1%
ROCK2 (human)
  residual activity: 89.2%
RPS6KA3 KD1 KD2 (human)
  residual activity: 46.7%
CLK2 (human)
  residual activity: 46.7%
STK25 (human)
  residual activity: 78.3%
MAPK8 (human)
  residual activity: 95.1%
PRKCZ (human)
  residual activity: 96.2%
PRKD1 (human)
  residual activity: 97.6%
CDK6 CCND3 (human)
  residual activity: 103%
CHEK2 (human)
  residual activity: 124%
